Reference: patent US20250195463A1, “ORGANOMETALLIC COMPLEX, CONTROLLED-RELEASE MULTI-FUNCTIONAL DRUG, PHARMACEUTICAL COMPOSITION, PROCESSES FOR THE PREPARATION THEREOF AND THEIR USE” (FACULDADE DE CIÊNCIAS DA UNIVERSIDADE DE LISBOA, priority 2022, published 2025)
pIC50: −log10 of the molar value.

Assays:
MDA-MB-231 (FGFR−) = assay: MTT cytotoxicity assay; settings: MDA-MB-231
Description: By way of example, the in vitro cytotoxicity of the conjugate RuPC1, complex 4 and peptide P2 was determined in four human breast cancer cell lines with different levels of expression of the receptor FGFR, namely MDA-MB-231 (FGFR−), MCF-7 (FGFR−), SK-BR-3 (FGFR+), and MDA-MB-134-VI (FGFR+). The cytotoxicity of RuPC1 was also determined in the stated cell lines at controlled pH 6.8 and 7.4. The cytotoxicity of the complexes 5, 8, 9, and the reference complex (2,2′-bipyridyl)(triphenylphosphane)(f-cyclopentadienyl)ruthenium(II) trifluoromethanesulfonate, [RuCp(PPh3)(bipy)][CF3SO3] (TM34) was only determined in the cell line MDA-MB-231. All the cell lines were from the American Type Culture Collection (ATCC) and were cultured in Dulbecco's Modified Eagle Medium+Glutamax-I (Gibco) supplemented with 10% fetal bovine serum (FBS) and 1% antibiotics, excepting the MDA-MB-134-VI for which it was used the double amount of FBS. The cell cultures were kept in an incubator Heraeus at 37° C. under humidified atmosphere at 5% CO2. The cell viability was evaluated resorting to the MTT ([3-(4,5-dimethylthiazol-2-yl)-2,5-diphenyltetrazolium bromide]) colorimetric assay, which is based on the reduction of the tetrazolium salt to purple formazan by mitochondrial dehydrogenases in metabolically active cells. For the assays, the cells were seeded in 96-well plates (2×10^4 to 3×10^4 cells/200 μL) and allowed to adhere overnight. The compounds were first dissolved in dimethyl sulfoxide to obtain 10 mM stock solutions, further used to prepare the working solutions, at 0.1 to 100 μM, by dilution in the cell culture medium. Alternatively, for the assays at controlled pH 6.8 and 7.4, RuPC1 was first dissolved in a solution of 15% dimethyl sulfoxide/85% phosphate buffer (10 mM in water) to obtain 1.5 mM stock solutions further incubated for 48 hours at both pH values prior to be used to prepare the working solutions, at 0.1 to 50 μM, by dilution in the cell culture medium. In both cases, after continuous exposure of the cells to the compounds for 48 h at 37° C., the medium was removed and the cells were incubated with 200 μL of MTT solution (0.5 mg/mL) for 3 h. Then, the solution was discarded and the purple formazan formed by the viable cells was dissolved in 200 μL of dimethyl sulfoxide. The cell viability (%) was determined relative to the control (cells incubated without compounds) by measuring the absorbance at 570 nm on a PowerWave Xs Bio-Tek Instruments plate spectrophotometer. The respective values of the half maximal inhibitory concentration (IC50) were calculated with the software GraphPad Prism. All the compounds were tested in at least two independent experiments, each comprising six replicates per concentration.

[1] = Stability in aqueous medium (dimethyl sulfoxide/Dulbecco's Modified Eagle Medium) by UV-Vis spectroscopy; format: physicochemical; settings: 5% dimethyl sulfoxide/95% Dulbecco's Modified Eagle Medium; for Relative variation of the maximum absorbance of the π→π* transitions: band 292-296 nm (λmax in column head); for Relative variation of the maximum absorbance of the charge transfer bands: band 358-400 nm (λmax in column head)
Description: (§1) The stability of the complexes 4-11 in organic and aqueous media was evaluated over 24 h by UV-Vis spectroscopy at room temperature, in dark, on a Jasco V-660 spectrometer using quartz cuvettes (1 cm optical path length). The electronic spectra (270-900 nm) were acquired at regular periods of time (0 h, 0.25 h, 0.5 h, 0.75 h, 1 h, 2 h, 3 h, 4 h, 5 h, 6 h, 24 h) for solutions of 100% dimethyl sulfoxide (complexes 4-11) and 5% dimethyl sulfoxide/95% Dulbecco's Modified Eagle Medium (complexes 4, 5 and 8-11) or 10% dimethyl sulfoxide/90% Dulbecco's Modified Eagle Medium (complexes 6 and 7) at concentrations ranging from 7.0×10^-5 M to 3.0×10^-4 M.

[2] = Stability in organic medium (dimethyl sulfoxide) by UV-Vis spectroscopy; format: physicochemical; settings: for Relative variation of the maximum absorbance of the π→π* transitions: band 289-300 nm (λmax in column head); for Relative variation of the maximum absorbance of the charge transfer bands: band 357-425 nm (λmax in column head)
Description: as §1

CC(=O)C1=C[CH]([Ru-]2([PH](c3ccccc3)(c3ccccc3)c3ccccc3)[n+]3ccccc3-c3cccc[n+]32)C=C1.O=S(=O)([O-])C(F)(F)F (stereo not shown) [compound 5]
IC50 range in words (MDA-MB-231 (FGFR−); Example 24): sub-micromolar range | pIC50 (MDA-MB-231 (FGFR−); read-out: Cytotoxic activity expressed as IC50, Table 5, 48 h, 37° C.): 6.44 | Relative variation of the maximum absorbance of the π→π* transitions ([1]; time 0 h): 0.0% | Relative variation of the maximum absorbance of the charge transfer bands ([1]; time 0 h): 0.0% | Relative variation of the maximum absorbance of the π→π* transitions ([1]; time 0.25 h): 0.6% | Relative variation of the maximum absorbance of the charge transfer bands ([1]; time 0.25 h): −1.0% | Relative variation of the maximum absorbance of the π→π* transitions ([1]; time 0.5 h): −0.1% | Relative variation of the maximum absorbance of the charge transfer bands ([1]; time 0.5 h): −2.1% | Relative variation of the maximum absorbance of the π→π* transitions ([1]; time 0.75 h): 0.3% | Relative variation of the maximum absorbance of the charge transfer bands ([1]; time 0.75 h): −2.7% | Relative variation of the maximum absorbance of the π→π* transitions ([1]; time 1 h): 0.0% | Relative variation of the maximum absorbance of the charge transfer bands ([1]; time 1 h): −3.4% | Relative variation of the maximum absorbance of the π→π* transitions ([1]; time 2 h): 1.0% | Relative variation of the maximum absorbance of the charge transfer bands ([1]; time 2 h): −1.2% | Relative variation of the maximum absorbance of the π→π* transitions ([1]; time 3 h): 0.7% | Relative variation of the maximum absorbance of the charge transfer bands ([1]; time 3 h): −3.4% | Relative variation of the maximum absorbance of the π→π* transitions ([1]; time 4 h): 0.7% | Relative variation of the maximum absorbance of the charge transfer bands ([1]; time 4 h): −4.1% | Relative variation of the maximum absorbance of the π→π* transitions ([1]; time 5 h): 0.7% | Relative variation of the maximum absorbance of the charge transfer bands ([1]; time 5 h): −5.1% | Relative variation of the maximum absorbance of the π→π* transitions ([1]; time 6 h): 2.1% | Relative variation of the maximum absorbance of the charge transfer bands ([1]; time 6 h): 0.3% | Relative variation of the maximum absorbance of the π→π* transitions ([1]; time 24 h): −1.8% | Relative variation of the maximum absorbance of the charge transfer bands ([1]; time 24 h): −3.0% | Relative variation of the maximum absorbance of the π→π* transitions ([2]; time 0 h): 0.0% | Relative variation of the maximum absorbance of the charge transfer bands ([2]; time 0 h): 0.0% | Relative variation of the maximum absorbance of the π→π* transitions ([2]; time 0.25 h): 0.3% | Relative variation of the maximum absorbance of the charge transfer bands ([2]; time 0.25 h): 0.1% | Relative variation of the maximum absorbance of the π→π* transitions ([2]; time 0.5 h): −0.5% | Relative variation of the maximum absorbance of the charge transfer bands ([2]; time 0.5 h): 0.0% | Relative variation of the maximum absorbance of the π→π* transitions ([2]; time 0.75 h): −0.4% | Relative variation of the maximum absorbance of the charge transfer bands ([2]; time 0.75 h): 0.2% | Relative variation of the maximum absorbance of the π→π* transitions ([2]; time 1 h): −0.3% | Relative variation of the maximum absorbance of the charge transfer bands ([2]; time 1 h): 0.1% | Relative variation of the maximum absorbance of the π→π* transitions ([2]; time 2 h): −0.9% | Relative variation of the maximum absorbance of the charge transfer bands ([2]; time 2 h): 0.3% | Relative variation of the maximum absorbance of the π→π* transitions ([2]; time 3 h): −1.2% | Relative variation of the maximum absorbance of the charge transfer bands ([2]; time 3 h): 0.3% | Relative variation of the maximum absorbance of the π→π* transitions ([2]; time 4 h): −1.2% | Relative variation of the maximum absorbance of the charge transfer bands ([2]; time 4 h): 0.3% | Relative variation of the maximum absorbance of the π→π* transitions ([2]; time 5 h): −1.5% | Relative variation of the maximum absorbance of the charge transfer bands ([2]; time 5 h): 0.5% | Relative variation of the maximum absorbance of the π→π* transitions ([2]; time 6 h): −1.5% | Relative variation of the maximum absorbance of the charge transfer bands ([2]; time 6 h): 0.2% | Relative variation of the maximum absorbance of the π→π* transitions ([2]; time 24 h): −1.9% | Relative variation of the maximum absorbance of the charge transfer bands ([2]; time 24 h): 0.3%
